# Source: ChEMBL document CHEMBL5055672, “Design, Synthesis, Biological Evaluation, and Computational Studies of Novel Fluorinated Candidates as PI3K Inhibitors: Targeting Fluorophilic Binding Sites” (J Med Chem, 2021)
# Assays:
# [1] = system: CCRF-CEM; assay: Cytotoxicity against human CCRF-CEM cells assessed as growth inhibition at 10 uM after 48 hrs by sulforhodamine B assay; format: functional; settings: read-out: GI
# [2] = system: Malme-3M; assay: Cytotoxicity against human MALME-3M cells assessed as growth inhibition at 10 uM after 48 hrs by sulforhodamine B assay; format: functional; settings: read-out: GI
# [3] = system: UO-31; assay: Cytotoxicity against human UO-31 cells assessed as growth inhibition at 10 uM after 48 hrs by sulforhodamine B assay; format: functional; settings: read-out: GI
# [4] = system: BT-549; assay: Cytotoxicity against human BT-549 cells assessed as growth inhibition at 10 uM after 48 hrs by sulforhodamine B assay; format: functional; settings: read-out: GI
# [5] = system: HL-60(TB); assay: Cytotoxicity against human HL-60(TB) cells assessed as growth inhibition at 10 uM after 48 hrs by sulforhodamine B assay; format: functional; settings: read-out: GI
# [6] = system: K562; assay: Cytotoxicity against human K562 cells assessed as growth inhibition at 10 uM after 48 hrs by sulforhodamine B assay; format: functional; settings: read-out: GI
# [7] = system: SR; assay: Cytotoxicity against human SR cells assessed as growth inhibition at 10 uM after 48 hrs by sulforhodamine B assay; format: functional; settings: read-out: GI
# [8] = system: NCI-H522; assay: Cytotoxicity against human NCI-H522 cells assessed as growth inhibition at 10 uM after 48 hrs by sulforhodamine B assay; format: functional; settings: read-out: GI
# [9] = system: CAKI-1; assay: Cytotoxicity against human CAKI-1 cells assessed as growth inhibition at 10 uM after 48 hrs by sulforhodamine B assay; format: functional; settings: read-out: GI
# [10] = system: MCF7; assay: Cytotoxicity against human MCF7 cells assessed as growth inhibition at 10 uM after 48 hrs by sulforhodamine B assay; format: functional; settings: read-out: GI
# [11] = target: T1, Phosphatidylinositol 4,5-bisphosphate 3-kinase catalytic subunit delta isoform (Homo sapiens, UniProt O00329); assay: Inhibition of PI3Kdelta (unknown origin) using PIP2 as substrate preincubated for 10 mins followed by substrate addition and measured after 1 hr by ELISA
# T1 sequence (O00329 whole entry): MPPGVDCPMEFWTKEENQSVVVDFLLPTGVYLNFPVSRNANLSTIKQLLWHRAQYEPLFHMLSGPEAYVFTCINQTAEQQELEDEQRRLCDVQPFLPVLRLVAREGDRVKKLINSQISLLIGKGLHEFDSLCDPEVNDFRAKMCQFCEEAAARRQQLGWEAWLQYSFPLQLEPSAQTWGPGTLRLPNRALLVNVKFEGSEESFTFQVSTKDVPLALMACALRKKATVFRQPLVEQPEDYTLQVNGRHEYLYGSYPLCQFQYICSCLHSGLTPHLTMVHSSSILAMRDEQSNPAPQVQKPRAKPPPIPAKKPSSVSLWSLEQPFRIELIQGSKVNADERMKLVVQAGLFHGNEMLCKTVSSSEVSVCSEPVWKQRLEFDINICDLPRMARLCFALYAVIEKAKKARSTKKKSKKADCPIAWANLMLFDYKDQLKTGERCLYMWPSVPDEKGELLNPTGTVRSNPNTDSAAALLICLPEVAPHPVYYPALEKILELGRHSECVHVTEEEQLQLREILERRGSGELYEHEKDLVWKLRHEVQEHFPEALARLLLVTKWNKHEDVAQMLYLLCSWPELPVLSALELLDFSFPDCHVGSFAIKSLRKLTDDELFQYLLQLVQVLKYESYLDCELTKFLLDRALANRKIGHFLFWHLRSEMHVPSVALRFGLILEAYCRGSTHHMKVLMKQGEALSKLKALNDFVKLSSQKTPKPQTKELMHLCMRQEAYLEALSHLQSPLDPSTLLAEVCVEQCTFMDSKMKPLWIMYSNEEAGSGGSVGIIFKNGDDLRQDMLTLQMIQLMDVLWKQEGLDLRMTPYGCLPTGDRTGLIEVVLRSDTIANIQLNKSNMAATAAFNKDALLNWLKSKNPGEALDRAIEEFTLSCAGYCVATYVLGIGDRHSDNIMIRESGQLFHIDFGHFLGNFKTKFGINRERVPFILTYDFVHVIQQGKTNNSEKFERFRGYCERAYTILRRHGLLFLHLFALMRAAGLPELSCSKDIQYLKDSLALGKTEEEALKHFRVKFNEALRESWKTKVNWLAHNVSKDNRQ
# [12] = system: EKVX; assay: Cytotoxicity against human EKVX cells assessed as growth inhibition at 10 uM after 48 hrs by sulforhodamine B assay; format: functional; settings: read-out: GI
# [13] = system: MCF7; assay: Antiproliferative activity against human MCF7 cells assessed as inhibition of cell growth incubated for 48 hrs by MTT assay; format: functional, cell-based; settings: MCF7, 48 h
# [14] = system: MCF-10A; assay: Cytotoxicity against human MCF10A cells assessed as inhibition of cell growth incubated for 48 hrs by MTT assay; format: cell-based
# [15] = Selectivity index, ratio of IC50 for human MCF-10A cells to IC50 for human MCF7 cells; format: toxicity; settings: MCF-10A cells versus MCF7 cells, read-out: Ratio IC50
# [16] = system: MDA-MB-231; assay: Cytotoxicity against human MDA-MB-231 cells assessed as growth inhibition at 10 uM after 48 hrs by sulforhodamine B assay; format: functional; settings: read-out: GI
smiles,measurement,setting,value
O=S(=O)(Oc1ccc(-c2nnc(Nc3ccccc3)s2)cc1)C(F)(F)C(F)(F)C(F)(F)C(F)(F)C(F)(F)C(F)(F)C(F)(F)C(F)(F)F,inhibition of growth at 10 µM,[1],12.1%
same,inhibition of growth at 10 µM,[2],11.7%
same,inhibition of growth at 10 µM,[3],19.4%
same,inhibition of growth at 10 µM,[4],12.9%
FC(F)(F)c1ccc(-c2nnc(Nc3ccccc3)s2)cc1,inhibition of growth at 10 µM,[5],26.2%
same,inhibition of growth at 10 µM,[6],13.7%
same,inhibition of growth at 10 µM,[7],24.9%
same,inhibition of growth at 10 µM,[8],11%
same,inhibition of growth at 10 µM,[9],11.7%
same,inhibition of growth at 10 µM,[10],11.4%
O=S(=O)(Oc1ccc(/C=N/N=c2\scc(-c3ccccc3)n2-c2ccccc2)cc1)C(F)(F)C(F)(F)C(F)(F)C(F)(F)C(F)(F)C(F)(F)F,inhibition of growth at 10 µM,[10],43.5%
FC(F)(F)c1ccc(/C=N/N=c2\scc(-c3ccccc3)n2-c2ccccc2)cc1,inhibition of growth at 10 µM,[10],41.1%
O=c1cc(N2CCOCC2)oc2c(-c3ccccc3)cccc12 [LY-294002],IC50,[11],14.9 µM
FC(F)(F)c1ccc(/C=N/NC(=S)Nc2ccccc2)cc1,inhibition of growth at 10 µM,[12],10.3%
COc1cc([C@@H]2c3cc4c(cc3[C@@H](O[C@@H]3O[C@@H]5CO[C@@H](C)O[C@H]5[C@H](O)[C@H]3O)[C@H]3COC(=O)[C@H]23)OCO4)cc(OC)c1O [ETOPOSIDE],IC50,[13],12.6 µM
same,IC50,[14],84.7 µM
same,selectivity ratio,[15],3.86
O=S(=O)(Oc1ccc(-c2nnc(Nc3ccccc3)s2)cc1)C(F)(F)C(F)(F)C(F)(F)C(F)(F)C(F)(F)C(F)(F)F,inhibition of growth at 10 µM,[5],29.4%
same,inhibition of growth at 10 µM,[7],80.5%
same,inhibition of growth at 10 µM,[16],13.1%
